According to paper PMC6131539, “Behavioral Effects of a Potential Novel TAAR1 Antagonist” (Frontiers in Pharmacology, 2018):

How the values were obtained:
human TAAR1 receptor = system: human TAAR1 receptor; set-up: method as in Bradaia et al., 2009; conditions: ref Bradaia et al., 2009; cited from earlier work
VTA dopamine neurons = experiment: Electrophysiology: spontaneous firing of VTA dopamine neurons in slices; type: cell-based, C57Bl/6J mice; conditions: 10 nM, bath applied 5 min; positive control
Method: All electrophysiological recordings were performed in slice preparations from C57Bl/6J mice (P21-P30). Briefly, mice were anaesthetized with isoflurane and transcardially perfused with an ice-cold sucrose solution containing (in mM): 50 sucrose, 26.2 NaHCO3, 1.25 glucose, 4.9 MgCl2, 3 kynurenic acid, 0.1 CaCl2, and 1.32 ascorbic acid in bicarbonate-buffered solution (aCSF, described below). Mice were then decapitated and brains were extracted. […] Cells were visualized on an upright microscope using “Dodt-type” gradient contrast infrared optics ([Dodt et al., 2002]) and whole-cell recordings were made using a MultiClamp 700B amplifier (Axon Instruments, Union City, CA, United States). Recording electrodes (3–5 MΩ) were filled with (in mM): 136 potassium-D-gluconate, 4 MgCl2, 1.1 HEPES, 5, EGTA, 10 sodium creatine phosphate, 3.4 Mg-ATP, and 0.1 Na2GTP. […] Spontaneous firing activity was recorded in current-clamp mode. […] Firing data for all neurons was analyzed with the MiniAnalysis program (Synaptosoft) using the same criteria. Drug-induced changes in firing are expressed as a percentage of baseline. Drug effects were calculated by comparing the response during the baseline/pre-drug period to the response 5 min after onset of drug administration. […] We therefore assessed the effects of compound 22 on firing rate of dopamine neurons. […]

mouse TAAR1 = target: mouse TAAR1; set-up: method as in Bradaia et al., 2009; conditions: ref Bradaia et al., 2009; read-out: affinity for the mouse TAAR1; cited from earlier work

CCOc1cccc(NC(=O)c2ccc(N3CCCC3)c(C(F)(F)F)c2)c1 [EPPTB]
binding to the human TAAR1 receptor (human TAAR1 receptor): does not bind
increase in firing of dopamine neurons (VTA dopamine neurons): 74%
Ki (mouse TAAR1): 0.9 nM
